This passage reports IC50 results from US11174248B2, “Indazolyl-spiro[2.3]hexane-carbonitrile derivatives as LRRK2 inhibitors, pharmaceutical compositions, and uses thereof” (Merck Sharp & Dohme Corp., priority 2017, dated 2021).

Chain of GST-tagged truncated human mutant G2019S LRRK2 (Q5S007 970-2527 G2019S): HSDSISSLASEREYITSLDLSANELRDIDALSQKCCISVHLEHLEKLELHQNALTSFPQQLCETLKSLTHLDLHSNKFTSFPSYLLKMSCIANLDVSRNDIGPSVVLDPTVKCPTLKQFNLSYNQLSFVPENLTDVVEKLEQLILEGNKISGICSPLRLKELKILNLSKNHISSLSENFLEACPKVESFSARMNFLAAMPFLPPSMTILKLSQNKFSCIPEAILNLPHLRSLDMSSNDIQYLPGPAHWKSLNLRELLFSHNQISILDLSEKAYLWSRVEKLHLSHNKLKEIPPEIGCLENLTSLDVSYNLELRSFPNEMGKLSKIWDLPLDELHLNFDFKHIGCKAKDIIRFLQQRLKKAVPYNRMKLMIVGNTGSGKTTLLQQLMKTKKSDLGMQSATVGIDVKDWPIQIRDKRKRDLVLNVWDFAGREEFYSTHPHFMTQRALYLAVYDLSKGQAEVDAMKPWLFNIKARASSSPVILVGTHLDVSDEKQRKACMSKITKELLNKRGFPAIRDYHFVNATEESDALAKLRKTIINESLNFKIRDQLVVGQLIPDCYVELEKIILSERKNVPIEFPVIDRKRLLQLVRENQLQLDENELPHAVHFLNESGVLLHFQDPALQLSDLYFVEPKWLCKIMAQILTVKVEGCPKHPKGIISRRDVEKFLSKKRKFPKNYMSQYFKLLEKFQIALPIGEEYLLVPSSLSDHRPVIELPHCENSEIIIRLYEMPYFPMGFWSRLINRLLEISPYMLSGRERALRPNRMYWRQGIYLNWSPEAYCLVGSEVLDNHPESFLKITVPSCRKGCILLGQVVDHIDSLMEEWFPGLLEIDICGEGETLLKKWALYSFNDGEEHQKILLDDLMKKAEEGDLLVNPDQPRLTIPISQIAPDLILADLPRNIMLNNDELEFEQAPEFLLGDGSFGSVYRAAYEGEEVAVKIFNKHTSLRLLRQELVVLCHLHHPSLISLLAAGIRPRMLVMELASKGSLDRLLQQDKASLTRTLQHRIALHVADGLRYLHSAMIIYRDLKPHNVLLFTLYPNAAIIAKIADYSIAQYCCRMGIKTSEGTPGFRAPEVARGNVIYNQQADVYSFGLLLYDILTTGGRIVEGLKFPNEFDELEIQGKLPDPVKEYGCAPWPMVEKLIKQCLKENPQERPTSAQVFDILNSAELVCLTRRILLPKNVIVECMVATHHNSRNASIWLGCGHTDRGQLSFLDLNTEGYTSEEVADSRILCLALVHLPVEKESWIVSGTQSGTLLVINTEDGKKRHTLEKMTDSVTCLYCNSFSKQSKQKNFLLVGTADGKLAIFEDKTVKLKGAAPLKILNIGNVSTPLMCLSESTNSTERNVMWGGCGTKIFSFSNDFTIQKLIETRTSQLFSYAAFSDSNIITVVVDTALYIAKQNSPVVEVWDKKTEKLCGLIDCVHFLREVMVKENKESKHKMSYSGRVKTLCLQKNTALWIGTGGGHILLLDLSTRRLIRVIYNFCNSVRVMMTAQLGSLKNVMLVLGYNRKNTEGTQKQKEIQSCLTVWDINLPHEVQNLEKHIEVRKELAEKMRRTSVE

This experiment deals with GST-tagged truncated human mutant G2019S LRRK2 (Homo sapiens (Human), UniProt Q5S007, G2019S). In words: LRRK2 Km ATP LanthaScreen Assay. The note with it: 134 μM ATP (Km ATP); fluorescein-labeled LRRKtide substrate; mean IC50 values. The format is biochemical. As to the method:
Unless otherwise noted, all LRRK2 IC50 data presented in tables refers to the LRRK2 Km ATP LanthaScreen™ Assay that is described in the Biological Assay section.
Biological Assay: LRRK2 Km ATP LanthaScreen™ Assay
The LRRK2 kinase activity reported herein as IC50 values was determined with LanthaScreen™ technology from Life Technologies Corporation (Carlsbad, Calif.) using GST-tagged truncated human mutant G2019S LRRK2 in the presence of the fluorescein-labeled peptide substrate LRRKtide, also from Life Technologies. The data presented for the Km ATP LanthaScreen™ Assay represents mean IC50 values based on several test results and may have reasonable deviations depending on the specific conditions and reagents used. Assays were performed in the presence of 134 μM ATP (Km ATP). Upon completion, the assay was stopped and phosphorylated substrate detected with a terbium (Tb)-labeled anti-pERM antibody (cat. no. PV4898). The compound dose response was prepared by diluting a 10 mM stock of compound to a maximum concentration of 9.99 μM in 100% dimethylsulfoxide followed by custom fold serial dilution in dimethylsulfoxide nine times. Twenty nanoliters of each dilution was spotted via a Labcyte Echo onto a 384-well black-sided plate (Corning 3575) followed by 15 μl of a 1.25 nM enzyme solution in 1× assay buffer (50 mM Tris pH 8.5, 10 mM MgCl2, 0.01% Brij-35, 1 mM EGTA, 2 mM dithiothreitol, 0.05 mM sodium orthovanadate) Following a 15-minute incubation at room temperature, the kinase reaction was started with the addition of 5 μl of 400 nM fluorescein-labeled LRRKtide peptide substrate and 134 μM ATP solution in 1× assay buffer. The reaction was allowed to progress at ambient temperature for 90 minutes. The reaction was then stopped by the addition of 20 μl of TR-FRET Dilution Buffer (Life Technologies, Carlsbad, Calif.) containing 2 nM Tb-labeled anti-phospho LRRKtide antibody and 10 mM EDTA (Life Technologies, Carlsbad, Calif.). After an incubation of 1 hour at room temperature, the plate was read on an EnVision multimode plate reader (Perkin Elmer, Waltham, Mass.) with an excitation wavelength of 337 nm (Laser) and a reading emission at both 520 and 495 nm. Compound IC50s were interpolated from nonlinear regression best fits of the log of the final compound concentration, plotted as a function of the 520/495-nm emission ratio using Activity base. Abase uses a 4 parameter (4P) logistic fit based on the Levenberg-Marquardt algorithm.
In general terms: In TR-FRET formats the signal depends on donor and acceptor labels being close together.
For orientation: IC50 means the concentration that gives 50% inhibition. High values mean weaker potency, low ones greater potency. Consider `CC1C(C(C)(C)O)CCN1c1cc(-n2ncc3ccc(C4(C#N)CC5(CC5)C4)cc32)ncn1` (single isomer, unassigned) [Example 38, 5-(1-(6-(3-(2-hydroxypropan-2-yl)-2-methylpyrrolidin-1-yl)pyrimidin-4-yl)-1H-indazol-6-yl)spiro[2.3]hexane-5-carbonitrile], for which the IC50 was 59 nM.
The same measure for `N#CC1(c2ccc3cnn(-c4ccnc(N5CC6(CO)CC5C6)c4)c3c2)CC2(CC2)C1` [Example 32, 5-(1-(2-(4-(hydroxymethyl)-2-azabicyclo[2.1.1]hexan-2-yl)pyridin-4-yl)-1H-indazol-6-yl)spiro[2.3]hexane-5-carbonitrile]: 10 nM; for `COC1(C)CN(c2cc(-n3ncc4ccc(C5(C#N)CC6(CC6)C5)cc43)ncn2)C1` [Example 26, 5-(1-(6-(3-methoxy-3-methylazetidin-1-yl)pyrimidin-4-yl)-1H-indazol-6-yl)spiro[2.3]hexane-5-carbonitrile]: 4.3 nM.
Under `C[C@H]1CN(c2cc(-n3ncc4ccc(C5(C#N)CC6(CC6)C5)cc43)ncn2)CCN1C1CCOC1` (single isomer, unassigned) [Example 35] stands 3.5 nM; under `N#CC1(c2ccc3cnn(-c4cc(N5CC[C@@H](CO)C5)ncn4)c3c2)CC2(CC2)C1` [Example 8, (R)-5-(1-(6-(3-(hydroxy-methyl)pyrrolidin-1-yl)pyrimidin-4-yl)-1H-indazol-6-yl)spiro[2.3]hexane-5-carbonitrile], 2.9 nM; under `CC1CC12CC(C#N)(c1ccc3cnn(-c4cc(N5CCN6CCOC[C@@H]6C5)ncn4)c3c1)C2` (single isomer, unassigned) [Example 51], 9.8 nM.
The compound `Cc1nc(N2CC[C@@H](O)[C@@H](F)C2)cc(-n2ncc3ccc(C4(C#N)CC5(CC5)C4)cc32)n1` [Example 4, 5-(1-(6-((3S,4R)-3-fluoro-4-hydroxypiperidin-1-yl)-2-methylpyrimidin-4-yl)-1H-indazol-6-yl)spiro[2.3]hexane-5-carbonitrile] yielded an IC50 of 7.4 nM.
The same measure for `CC1C(C(C)(C)O)CCN1c1cc(-n2ncc3ccc(C4(C#N)CC5(CC5)C4)cc32)ncn1` (single isomer, unassigned) [Example 37, 5-(1-(6-(3-(2-hydroxypropan-2-yl)-2-methylpyrrolidin-1-yl)pyrimidin-4-yl)-1H-indazol-6-yl)spiro[2.3]hexane-5-carbonitrile]: 138 nM; for `CC(C)(O)[C@@H]1CCN(c2cc(-n3ncc4cnc(C5(C#N)CC6(CC6)C5)cc43)ncn2)C1` [Example 19, (R)-5-(1-(6-(3-(2-hydroxypropan-2-yl)pyrrolidin-1-yl)pyrimidin-4-yl)-1H-pyrazolo[4,3-c]pyridin-6-yl)spiro[2.3]hexane-5-carbonitrile]: 10.7 nM.
Under `CN1CCOC2(C1)CN(c1cc(-n3ncc4ccc(C5(C#N)CC6(CC6)C5)cc43)ncn1)C2` [Example 28, 5-(1-(6-(8-methyl-5-oxa-2,8-diazaspiro[3.5]nonan-2-yl)pyrimidin-4-yl)-1H-indazol-6-yl)spiro[2.3]hexane-5-carbonitrile] stands 1.3 nM; under `C[C@H]1CN(c2cc(-n3ncc4ccc(C5(C#N)CC6(CC6)C5)cc43)ccn2)CCN1C1COC1` [Example 31, (S)-5-(1-(2-(3-methyl-4-(oxetan-3-yl)piperazin-1-yl)pyridin-4-yl)-1H-indazol-6-yl)spiro[2.3]hexane-5-carbonitrile], 11.3 nM; under `N#CC1(c2ccc3cnn(-c4cc(N5CC[C@H](O)[C@@H](F)C5)ncn4)c3c2)CC2(CC2)C1` [Example 6, 5-(1-(6-((3S,4S)-3-fluoro-4-hydroxypiperidin-1-yl)pyrimidin-4-yl)-1H-indazol-6-yl)spiro[2.3]hexane-5-carbonitrile], 6.2 nM.
The same measure for `CC(C)(O)C1CN(c2cc(-n3ncc4ccc(C5(C#N)CC6(CC6)C5)cc43)ncn2)CC1F` (single isomer, unassigned) [Example 22, 5-(1-(6-(3-fluoro-4-(2-hydroxypropan-2-yl)pyrrolidin-1-yl)pyrimidin-4-yl)-1H-indazol-6-yl)spiro[2.3]hexane-5-carbonitrile]: 3.7 nM; for `N#CC1(c2ccc3cnn(-c4cc(N5CC(O)(C6CC6)C5)ncn4)c3c2)CC2(CC2)C1` [Example 27, 5-(1-(6-(3-cyclopropyl-3-hydroxyazetidin-1-yl)pyrimidin-4-yl)-1H-indazol-6-yl)spiro[2.3]hexane-5-carbonitrile]: 7.4 nM; for `CC1C2(CC2)CC1(C#N)c1ccc2cnn(-c3cc(N4CCN5CCOC[C@@H]5C4)ncn3)c2c1` (single isomer, unassigned) [Example 56]: 3 nM.
`N#CC1(c2ccc3cnn(-c4cc(N5CC6(CO)CC5C6)ncn4)c3c2)CC2(CC2)C1` [Example 7, 5-(1-(6-(4-(hydroxymethyl)-2-azabicyclo[2.1.1]hexan-2-yl)pyrimidin-4-yl)-1H-indazol-6-yl)spiro[2.3]hexane-5-carbonitrile] gave an IC50 of 1.5 nM.
Under `C[C@H]1CN(c2cc(-n3ncc4ccc(C5(C#N)CC6(CC6)C5)cc43)ncn2)CCO1` [Example 42, (S)-5-(1-(6-(2-methyl-morpholino)pyrimidin-4-yl)-1H-indazol-6-yl)spiro[2.3]hexane-5-carbonitrile] stands 5.6 nM; under `CC(C)(O)[C@@H]1CCN(c2cc(-n3ncc4ccc(C5(C#N)CC6(CC6)C5)cc43)ncn2)C1` [Example 11, (R)-5-(1-(6-(3-(2-hydroxypropan-2-yl)pyrrolidin-1-yl)pyrimidin-4-yl)-1H-indazol-6-yl)spiro[2.3]hexane-5-carbonitrile], 0.9 nM; under `CC1(O)CC2(CN(c3cc(-n4ncc5ccc(C6(C#N)CC7(CC7)C6)cc54)ncn3)C2)C1` (centres unmarked) [Example 33, 5-(1-(6-(6-hydroxy-6-methyl-2-azaspiro[3.3]heptan-2-yl)pyrimidin-4-yl)-1H-indazol-6-yl)spiro[2.3]hexane-5-carbonitrile], 1 nM.
The same measure for `CN1CCOC2CN(c3cc(-n4ncc5ccc(C6(C#N)CC7(CC7)C6)cc54)ncn3)CC21` (single isomer, unassigned) [Example 40, 5-(1-(6-(4-methylhexahydropyrrolo[3,4-b][1,4]oxazin-6(2H)-yl)pyrimidin-4-yl)-1H-indazol-6-yl)spiro[2.3]hexane-5-carbonitrile]: 0.9 nM; for `C[C@H]1CN(c2cc(-n3ncc4ccc(C5(C#N)CC6(CC6)C5)cc43)ncn2)CCN1C1CCOC1` (single isomer, unassigned) [Example 34]: 0.9 nM.
The same measure for `N#CC1(c2ccc3cnn(-c4cc(N5CC[C@@H](O)[C@@H](F)C5)ncn4)c3c2)CC2(CC2)C1` [Example 1, 5-(1-(6-((3S,4R)-3-fluoro-4-hydroxypiperidin-1-yl)pyrimidin-4-yl)-1H-indazol-6-yl)spiro[2.3]hexane-5-carbonitrile]: 4.4 nM.
Regarding `N#CC1(c2ccc3cnn(-c4cc(N5CCN6CCOC[C@H]6C5)ncn4)c3c2)CC2(CC2)C1` [Example 46, (R)-5-(1-(6-(hexahydropyrazino[2,1-c][1,4]oxazin-8(1H)-yl)pyrimidin-4-yl)-1H-indazol-6-yl)spiro[2.3]hexane-5-carbonitrile], the IC50 was 7 nM.
The same measure for `COCc1nc(N2CCN(C3COC3)[C@@H](C)C2)cc(-n2ncc3ccc(C4(C#N)CC5(CC5)C4)cc32)n1` [Example 21, (S)-5-(1-(2-(methoxymethyl)-6-(3-methyl-4-(oxetan-3-yl)piperazin-1-yl)pyrimidin-4-yl)-1H-indazol-6-yl)spiro[2.3]hexane-5-carbonitrile]: 10.9 nM; for `CC(C)(O)C12CC(C1)N(c1cc(-n3ncc4cnc(C5(C#N)CC6(CC6)C5)cc43)ncn1)C2` [Example 18, 5-(1-(6-(4-(2-hydroxypropan-2-yl)-2-azabicyclo[2.1.1]hexan-2-yl)pyrimidin-4-yl)-1H-pyrazolo[4,3-c]pyridin-6-yl)spiro[2.3]hexane-5-carbonitrile]: 19.2 nM.
The same measure for `C[C@@H]1CN(c2cc(-n3ncc4ccc(C5(C#N)CC6(CC6)C5)cc43)ncn2)C[C@H](C)[C@]1(C)O` [Example 17, 5-(1-(6-((3S,4s,5R and 3R,4s,5S)-4-hydroxy-3,4,5-trimethylpiperidin-1-yl)pyrimidin-4-yl)-1H-indazol-6-yl)spiro[2.3]hexane-5-carbonitrile]: 8.9 nM.
